In patent publication US8624037B2, “Imidazolidine-2,4-dione derivatives and use thereof as a medicament” (Ipsen Pharma S.A.S., priority 2009, dated 2014):

How the values were obtained:
LNCaP cells [1] = assay: Anti-proliferative activity on LNCaP in complete medium (WST-1); type: cell-based; conditions: Homo sapiens, 144 h, 144 h incubation, WST-1 reading, read-out: IC50 on the LNCaP cells in culture (concentration inhibiting the cell proliferation by 50%)
Method: 1. Anti-Proliferative Activity on LNCaP in Complete Medium
The anti-proliferative activity of the compounds of the present invention is determined on LNCaP in complete medium by applying the following experimental procedure:
The LNCaP cell type (ATCC, 1740) originates from a prostate carcinoma expressing the androgen receptor, this line is hormone-dependent.
Maintenance of the LNCaP line is carried out in complete culture medium: RPMI, 10% of foetal calf serum, 2 mM glutamine, 100 U/ml penicillin, 0.1 mg/ml of streptomycin and 0.01M HEPES, 1 mM sodium pyruvate, 40% of D-glucose. • Seeding the plates:
The LNCaP line is seeded at 20,000 cells/well in […] of complete medium in 96-well plates coated with poly-D-lysine (Biocoat, Costar). • Treatment of the cells: 24 h after the seeding, the cells are treated with 10 μl/well of compound diluted in the culture medium. The concentrations used are the following: 1 nM/10/30/100/300/1000/3000/10,000/100,000 nM. The cells are incubated for 144 h at 37° C., 5% CO2. • Reading: After incubation for 6 days, 10 μL of the “WST-1 cell proliferation” reagent (Roche ref 1644807) is added to each well. After incubation for 2 hours at 37° C., 5% CO2, the absorbance at 450 nm is measured by spectrophotometry (Envision, Perkin Elmer). • Results: The experiments are carried out in duplicate and the best compounds are tested twice. A concentration value inhibiting the cell proliferation by 50% (IC50) is calculated.

androgen receptor = target: T1, androgen receptor (Homo sapiens, UniProt P10275, T878A); type: cell-based; conditions: LNCaP cells, 72 hours after treatment, western blot, FIGS. 2 to 10
T1 construct: primary antibody directed against the androgen receptor (AR441, sc-7305, Santa Cruz); host or cells: LNCaP
Method: The cells of the LNCaP line are seeded at a rate of 2.5 millions of cells per 10 cm Petri dish in RPMI, 10% of foetal calf serum, 2 mM of glutamine, 100 U/ml of penicillin, 0.1 mg/ml of streptomycin and 0.01M HEPES, 1 mM of sodium pyruvate, […]. 4 days later, the cells are treated with the compound to be tested. 72 hours after the treatment the cells are lyzed in lysis buffer (50 mM Tris pH 7.4, 150 mM NaCl, 1 mM EDTA, 20 mM NaF, 100 mM Na2VO3, 0.5% of NP40, 1% of Triton X-100, 1 mM EGTA, Pefabloc, protease inhibitor cocktail 11836170001 RocheDiagnostics, Phosphatase inhibitor cocktail set II Calbiochem). The cells are then scrapped and the lysate transferred into QIAshredder tubes (cat No. 79656 Qiagen) for centrifugation at 13,000 rpm for 15 min at 4° C. The supernatant is transferred into QIAshredder tubes for a second centrifugation at 13,000 rpm for 5 min in order to completely eliminate the DNA filaments. The protein concentration is then determined (Bio-Rad DC protein assay kit) and adjusted so as to load the same quantity of proteins per well (10 and 20 per well depending on the experiments). The loading buffer (sample loading buffer 3×ref 7722 Cell signaling technology) with added 1% beta-mercaptoethanol and 50 mM DTT, is added to the samples which are then heated for 10 min at 90° C. The samples are deposited under a volume of 20 μl on NuPAGE 4-12% Bis-Tris gels (cat No. NP0322BOX, Invitrogen). The migration takes place in MOPS buffer (Invitrogen) and is carried out for 1 hour at 180V. The proteins are transferred onto a nitrocellulose membrane (Hybond ECL RPN78D, GE Healthcare) under semi-dry conditions, in the presence of transfer buffer (NP0006-1, Invitrogen) over 45 min at 15V. The membrane is then blocked for 1 hour in blocking buffer (Non-fat dry milk, cat 170-6404, Biorad) at 5% in Tris Buffer saline (TBS) 0.1% Tween 20. Then it is incubated at 4° C. overnight in the presence of primary antibody directed against the androgen receptor (AR441, sc-7305, Santa Cruz) diluted to 1/2000th in blocking buffer as well as in the presence of primary antibody directed against GAPDH (Cat.MAB374, Millipore) diluted to 1/20,000th in blocking buffer (monitoring of protein load). The membrane is then washed 3 times in washing buffer (TBS, 0.1% Tween 20). The membrane is then incubated in the presence of secondary anti-immunoglobulin mouse antibody coupled with HRP (Goat anti-mouse IgG-HRP, sc 2031, Santa Cruz) diluted to 1/5000th in blocking buffer. The membrane is then washed 3 times in washing buffer.

LNCaP cells [2] = assay: Pro- and/or anti-proliferative activity on LNCaP in medium depleted in steroids (WST-1); type: cell-based; conditions: FIG. 1
Method: 2. Antiproliferative Activity on LNCaP in a Medium Depleted in Steroids:
The pro- and/or anti-proliferative activity of the compounds of the present invention is determined on LNCaP in medium depleted in steroids.
The LNCaP (ATCC, 1740) line originates from a carcinoma of the prostate expressing the androgen receptor, it is hormone-dependent.
The maintenance of the LNCaP line is carried out under the usual conditions in RPMI, 10% of foetal calf serum, 2 mM of glutamine, 100 U/ml of penicillin, 0.1 mg/ml of streptomycin and 0.01M HEPES, 1 mM sodium pyruvate, 40% of D-glucose.
For the study under conditions without steroids, 24 hours before the seeding the culture medium of the cells is eliminated. […]
The LNCaP line is seeded at 20,000 cells/well in 90 μl of RPMI medium with 10% foetal calf serum depleted in steroids in 96-well plates coated with poly-D-lysine (Biocoat, Costar). • Treatment of the cells: 24 h after seeding, the cells are treated with 10 μl/well of compound diluted in the culture medium. […] The cells are incubated for 144 h at 37° C., 5% CO2. • Reading: After incubation for 6 days, 10 μL of cell proliferation reagent WST-1 (Roche ref 1644807) is added to each well. […]

LNCaP cells [3] = conditions: medium depleted in steroids; stated 'as described previously' (Veldscholte 1992); cited from earlier work

T1 sequence (P10275 whole entry T878A): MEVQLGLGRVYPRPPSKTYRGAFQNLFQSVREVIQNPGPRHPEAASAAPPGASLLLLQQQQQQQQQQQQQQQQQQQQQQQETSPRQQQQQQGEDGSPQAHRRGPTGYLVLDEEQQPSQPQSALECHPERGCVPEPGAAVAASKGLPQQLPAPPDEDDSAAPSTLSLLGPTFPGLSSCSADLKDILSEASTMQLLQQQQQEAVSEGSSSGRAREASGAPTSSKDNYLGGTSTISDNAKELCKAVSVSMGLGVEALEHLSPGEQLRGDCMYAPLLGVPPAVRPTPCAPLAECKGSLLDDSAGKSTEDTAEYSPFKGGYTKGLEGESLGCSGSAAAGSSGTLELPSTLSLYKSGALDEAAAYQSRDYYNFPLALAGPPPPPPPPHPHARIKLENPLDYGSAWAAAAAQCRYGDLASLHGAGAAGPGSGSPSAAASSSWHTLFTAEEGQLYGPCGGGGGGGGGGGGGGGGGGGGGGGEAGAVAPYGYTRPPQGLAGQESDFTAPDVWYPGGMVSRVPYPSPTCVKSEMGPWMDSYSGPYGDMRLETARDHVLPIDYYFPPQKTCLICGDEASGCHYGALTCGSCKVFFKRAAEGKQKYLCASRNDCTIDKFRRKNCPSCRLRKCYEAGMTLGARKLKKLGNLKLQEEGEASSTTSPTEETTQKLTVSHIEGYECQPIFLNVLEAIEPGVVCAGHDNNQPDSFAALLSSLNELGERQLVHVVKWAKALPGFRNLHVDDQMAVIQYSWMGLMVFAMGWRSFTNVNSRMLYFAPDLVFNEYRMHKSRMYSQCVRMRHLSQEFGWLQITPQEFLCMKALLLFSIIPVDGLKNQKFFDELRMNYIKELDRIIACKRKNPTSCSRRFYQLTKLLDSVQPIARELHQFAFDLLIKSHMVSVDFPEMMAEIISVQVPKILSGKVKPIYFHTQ

SMILES | IC50 (LNCaP cells [1]) [nM] | effect on protein expression of the androgen receptor (androgen receptor) | other results
COc1cc(N2C(=O)N(CCCCCN3C(=O)N(c4ccc([N+](=O)[O-])c(OC)c4)C(=O)C3(C)C)C(C)(C)C2=O)ccc1[N+](=O)[O-] [Example 13, 1,1′-pentane-1,5-diylbis[3-(3-methoxy-4-nitrophenyl)-5,5-dimethyl-imidazolidine-2,4-dione]] | < 1500 | – | –
CC1(C)C(=O)N(c2ccc(C#N)c(Cl)c2)C(=O)N1CCCCCN1C(=O)N(c2ccc(C#N)c(Cl)c2)C(=O)C1(C)C [Example 16, 4,4′-[pentane-1,5-diylbis(4,4-dimethyl-2,5-dioxoimidazolidine-3,1-diyl)]bis(2-chlorobenzonitrile)] | < 1500 | reduce protein expression of the androgen receptor | –
CC1(C)C(=O)N(c2ccc([N+](=O)[O-])c(C(F)(F)F)c2)C(=O)N1CCCCCCCN1C(=O)N(c2ccc([N+](=O)[O-])c(C(F)(F)F)c2)C(=O)C1(C)C [Example 4, 1,1′-heptane-1,7-diylbis{5,5-dimethyl-3-[4-nitro-3-(trifluoromethyl)phenyl]imidazolidine-2,4-dione}] | < 1500 | – | –
CC1(C)C(=O)N(c2ccc([N+](=O)[O-])c(C(F)(F)F)c2)C(=O)N1CCCCCN1C(=O)N(c2ccc([N+](=O)[O-])c(C(F)(F)F)c2)C(=O)C1(C)C [Example 2, 1,1′-pentane-1,5-diylbis{5,5-dimethyl-3-[4-nitro-3-(trifluoromethyl)phenyl]imidazolidine-2,4-dione}] | – | reduce protein expression of the androgen receptor | inhibitory activity on cell proliferation of LNCaP cultured in medium depleted in steroids (LNCaP cells [2]): visible inhibitory activity at low concentrations
CC1(C)NC(=O)N(c2ccc([N+](=O)[O-])c(C(F)(F)F)c2)C1=O [nilutamide] | – | – | agonist / inhibitory activity of nilutamide on LNCaP proliferation (LNCaP cells [3]): agonist activity at low concentrations, then an inhibitory activity at high concentrations
CC1(C)C(=O)N(c2ccc(C#N)c(C(F)(F)F)c2)C(=O)N1C/C=C\CN1C(=O)N(c2ccc(C#N)c(C(F)(F)F)c2)C(=O)C1(C)C [Example 21, 4,4′-[(2Z)-but-2-ene-1,4-diylbis(4,4-dimethyl-2,5-dioxoimidazolidine-3,1-diyl)]bis[2-(trifluoromethyl)benzonitrile]] | – | reduce protein expression of the androgen receptor | –
COC(=O)Nc1ccc(N2C(=O)N(CCCCCN3C(=O)N(c4ccc(NC(=O)OC)c(C)c4)C(=O)C3(C)C)C(C)(C)C2=O)cc1C [Example 14, dimethyl{pentane-1,5-diylbis[(4,4-dimethyl-2,5-dioxoimidazolidine-3,1-diyl)(2-methyl-4,1-phenylene)]}biscarbamate] | < 1500 | – | –
Cc1cc(N2C(=O)N(CCCCCN3C(=O)N(c4ccc(C#N)c(C)c4)C(=O)C3(C)C)C(C)(C)C2=O)ccc1C#N [Example 15, 4,4′-[pentane-1,5-diylbis(4,4-dimethyl-2,5-dioxoimidazolidine-3,1-diyl)]bis(2-methylbenzonitrile)] | – | reduce protein expression of the androgen receptor | –
CC1(C)C(=O)N(c2ccc([N+](=O)[O-])c(C(F)(F)F)c2)C(=O)N1CCOCCN1C(=O)N(c2ccc([N+](=O)[O-])c(C(F)(F)F)c2)C(=O)C1(C)C [Example 7, 1,1′-(oxydiethane-2,1-diyl)bis{5,5-dimethyl-3-[4-nitro-3-(trifluoromethyl)-phenyl]imidazolidine-2,4-dione}] | – | reduce protein expression of the androgen receptor | –
CC1(C)C(=O)N(c2ccc(C#N)c(C(F)(F)F)c2)C(=O)N1C[C@@H]1O[C@@H]1CN1C(=O)N(c2ccc(C#N)c(C(F)(F)F)c2)C(=O)C1(C)C [Example 22, 4,4′-{(2R,3S)-oxirane-2,3-diylbis[methanediyl(4,4-dimethyl-2,5-dioxoimidazolidine-3,1-diyl)]}bis[2-(trifluoromethyl)benzonitrile]] | – | reduce protein expression of the androgen receptor | –
Cc1cc(N2C(=O)N(CCCCCN3C(=O)N(c4ccc([N+](=O)[O-])c(C)c4)C(=O)C3(C)C)C(C)(C)C2=O)ccc1[N+](=O)[O-] [Example 10, 1,1′-pentane-1,5-diylbis[5,5-dimethyl-3-(3-methyl-4-nitrophenyl)imidazolidine-2,4-dione]] | < 1500 | reduce protein expression of the androgen receptor | –
CC1(C)C(=O)N(c2ccc([N+](=O)[O-])c(C(F)(F)F)c2)C(=O)N1C/C=C\CN1C(=O)N(c2ccc([N+](=O)[O-])c(C(F)(F)F)c2)C(=O)C1(C)C [Example 19, 1,1′-(2Z)-but-2-ene-1,4-diylbis{5,5-dimethyl-3-[4-nitro-3-(trifluoromethyl)phenyl]imidazolidine-2,4-dione}] | – | reduce protein expression of the androgen receptor | inhibitory activity on cell proliferation of LNCaP cultured in medium depleted in steroids (LNCaP cells [2]): visible inhibitory activity at low concentrations
